In patent publication US12286429B2, “5-oxo-1,2,3,5,8,8a-hexahydroindolizine-3-carboxamide derivatives useful as a factor XIa inhibitors” (Janssen Pharmaceutica NV, priority 2021, dated 2025):

Experiments:
Factor XIa = Factor XIa (Homo sapiens, UniProt P03951); assay: Factor XIa inhibition assay utilizing a fluorophore-quencher pair peptide substrate (FLINT); format: biochemical; details: 11-point, 3-fold serial dilution, top 100 nM; 30 min preincubation; 15 μM 5Fam-KLTRAETV-K5Tamra substrate; kinetic reads over 30 min; read-out: FXIa Inhibition IC50
Text: Biological Example 1: Factor XIa Inhibition Assay Utilizing a Fluorophore-Quencher Pair Peptide Substrate
A fluorescence intensity (FLINT) based assay was used to monitor inhibition of Factor XIa. The peptide substrate, 5Fam-KLTRAETV-K5Tamra (purchased from New England Peptide) was chosen based on the FXI sequence. Conversion of zymogen FXI to its activated form, FXIa, occurs by proteolytic cleavage by […] at two sites, Arg146 and Arg180. The custom peptide used in this assay was based on the Arg146 cleavage site of FXI. The peptide substrate was designed with a fluorophore-quencher pair, where the fluorescence is quenched until FXIa cleaves the 8-mer peptide after the Arg residue.
The Factor XIa FLINT assay was used with the following 5Fam-KLTRAETV-K5Tamra assay buffer: 50 mM Tris, pH 7.5, 100 mM NaCl, 5 mM CaCl2, 0.1 mg/mL BSA, 0.03% CHAPS. Assay buffer was prepared by mixing all ingredients fresh. 5Fam-KLTRAETV-K5Tamra peptide substrate was first prepared at 10 mM in 100% DMSO, then diluted to 3 mM in 100% DMSO. Assay buffer was then added directly to the 3 mM stock of substrate to prepare the 30 μM 2× working concentration (15 μM final concentration). The 2× Factor XIa stock solution was prepared by diluting 6.562 μM stock in 1× assay buffer for a […].
Test compound(s) were run in an 11-point, 3-fold serial dilution with a final top compound concentration of 100 nM. Final DMSO in assay was 2%. FXIa was preincubated with compound for 30-minutes and then substrate was added to initiate the reaction. The assay was run with kinetic (KIN) reads at 5 min intervals over 30 minutes. […] More specifically, the assay was run as follows: • 100 nL of 0.01 mM test compound was dispensed into black 384-well non-binding Greiner BioOne 784900 plate for 0.1 μM final concentration, • 5 μL of 1× assay buffer was dispensed to column 24 (low control) and 5 μL 2× Factor XIa solution was dispensed to columns 1-23 (column 23 high control); • the plate was centrifuged with a “cover” plate at 500 rpm for 1 min • the plate was pre-incubated for 30 minutes at room temperature with plate covered; • 5 μL of 2×5Fam-KLTRAETV-K5Tamra peptide substrate was dispensed into the entire plate, columns 1-24; • the plate was centrifuged with a “cover” plate at 500 rpm for 1 min; • the plate was read monitoring fluorescence intensity on the BMG PHERAStar at room temperature, using fluorescence module 485 nm/520 nm.
(§1) Percent inhibition (IC50) curves were generated per compound tested, and data was analyzed using a 4-parameter logistic fit using GeneData Screener. The relative fluorescence unit (RFU) values were normalized to percent inhibition using the following equation: % inhibition=((HC−LC)−(compound−LC)/(HC−LC))*100
where LC—low control=mean signal of no Factor XIa or 100% inhibition of Factor XIa; HC—high control=mean signal of Factor XIa+5Fam-KLTRAETV-K5Tamra peptide substrate with DMSO only.
(§2) An 11-point dose response curve for the test compound(s) was generated using GENDATA to determine IC50 value based on the following equation: Y=Bottom+(Top−Bottom)/(1+10^((log IC50−X)*HillSlope))
(§3) where Y is the % inhibition in the presence of X inhibitor concentration, Top=high control=mean signal of Factor XIa+5Fam-KLTRAETV-K5Tamra peptide substrate with DMSO only; Bottom=low control—mean signal of no Factor XIa or 100% inhibition of Factor XIa; HillSlope—Hill coefficient; and IC50=concentration of compound with 50% inhibition in relation to top/high control.

human plasma kallikrein = human plasma kallikrein (Homo sapiens, UniProt P03952); assay: Kallikrein inhibition assay utilizing a quenched AMC peptide substrate (FLINT); format: biochemical; details: 11-point, 3-fold serial dilution, top 1 μM; 30 min preincubation; 2 nM kallikrein; 50 μM Z-Gly-Pro-Arg-AMC; kinetic reads over 30 min
Method: Biological Example 2: Kallikrein Inhibition Assay Utilizing a Quenched AMC Peptide Substrate
A fluorescence intensity (FLINT) based assay was used to monitor inhibition of human plasma kallikrein. The peptide substrate, Z-Gly-Pro-Arg-AMC (Purchased from Bachem; Catalog #I-1150) was chosen based on its relatively low KM for kallikrein which enables running the assay at lower substrate concentrations to control background fluorescence. The kinetic parameters for this substrate were determined by fitting titration data to the Michaelis-Menten equation yielding a KM=40 μM, kcat=0.76 s^−1, and kcat/KM=18932 M^−1s^−1.
The Kallikrein FLINT assay was used with the following Z-Gly-Pro-Arg-AMC assay buffer: 50 mM Tris, pH 7.5, 100 mM NaCl, 5 mM CaCl2, 0.1 mg/mL BSA, 0.03% CHAPS. Assay buffer was prepared by mixing all ingredients fresh. 2× Z-Gly-Pro-Arg-AMC peptide substrate was prepared by diluting 10 mM stock into 1× assay buffer for a 100 μM working concentration (50 μM final concentration). The 2× kallikrein stock solution was prepared by diluting 14.76 μM stock in 1× assay buffer for a 4 nM working stock solution (2 nM final concentration).
Test compound(s) were run in an 11-point, 3-fold serial dilution with a final top compound concentration of 1 μM. Final DMSO in assay was 2%. Plasma kallikrein was pre-incubated for 30-minute with compound and then 50 μM substrate was added to initiate the reaction. The assay was run with kinetic (KIN) reads at 5 min intervals over 30 minutes. The time course was linear using 2 nM kallikrein greater than 30 minutes. More specifically, the assay was run as follows: • 100 nL of 0.1 mM test compound was dispensed into black 384-well non-binding Greiner BioOne 784900 plate for 1 μM final concentration; • 5 μL of 1× assay buffer was dispensed to columns 24 (low control) and 5 μL 2× human kallikrein enzyme solution was dispensed to columns 1-23 (column 23 high control); • the plate was centrifuged with a “cover” plate at 500 rpm for 1 min • the plate was pre-incubated for 30 minutes at room temperature with plate covered; • 5 μL of 2× Z-Gly-Pro-Arg-AMC peptide substrate was dispensed into the entire plate, columns 1-24; • the plate was centrifuged with a “cover” plate at 500 rpm for 1 min; • the plate was read monitoring fluorescence intensity on the BMG PHERAStar at room temperature, using fluorescence module 340 nm/440 nm.
as §1
where LC—low control=mean signal of […] 100% inhibition of human kallikrein enzyme; HC—high control=mean signal of […]+Z-Gly-Pro-Arg-AMC peptide substrate with DMSO only.
as §2
as §3, with “human kallikrein enzyme+Z-Gly-Pro-Arg-AMC” for “Factor XIa+5Fam-KLTRAETV-K5Tamra”, “human kallikrein enzyme” for “Factor XIa”, “human kallikrein enzyme;” for “Factor XIa;”

Chain of Factor XIa (P03951 388-625 limits assumed): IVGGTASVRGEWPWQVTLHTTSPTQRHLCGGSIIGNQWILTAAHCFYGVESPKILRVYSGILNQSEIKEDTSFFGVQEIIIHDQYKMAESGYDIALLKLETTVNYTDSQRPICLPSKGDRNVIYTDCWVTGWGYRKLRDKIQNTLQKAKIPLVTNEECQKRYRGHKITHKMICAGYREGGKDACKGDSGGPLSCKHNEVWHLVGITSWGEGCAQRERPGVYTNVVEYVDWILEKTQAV
Chain of Factor XIa (P03951 19-387 partner limits assumed): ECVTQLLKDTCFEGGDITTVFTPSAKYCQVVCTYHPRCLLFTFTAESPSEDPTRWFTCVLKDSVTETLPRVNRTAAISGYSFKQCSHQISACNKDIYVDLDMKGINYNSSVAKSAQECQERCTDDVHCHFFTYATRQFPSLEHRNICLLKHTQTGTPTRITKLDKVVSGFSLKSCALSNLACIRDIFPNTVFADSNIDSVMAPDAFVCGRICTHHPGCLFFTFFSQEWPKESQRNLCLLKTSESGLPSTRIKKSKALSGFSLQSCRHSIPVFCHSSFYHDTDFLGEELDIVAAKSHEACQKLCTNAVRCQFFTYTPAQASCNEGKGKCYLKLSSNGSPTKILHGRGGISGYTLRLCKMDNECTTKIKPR
Chain of human plasma kallikrein (P03952 391-638 limits assumed): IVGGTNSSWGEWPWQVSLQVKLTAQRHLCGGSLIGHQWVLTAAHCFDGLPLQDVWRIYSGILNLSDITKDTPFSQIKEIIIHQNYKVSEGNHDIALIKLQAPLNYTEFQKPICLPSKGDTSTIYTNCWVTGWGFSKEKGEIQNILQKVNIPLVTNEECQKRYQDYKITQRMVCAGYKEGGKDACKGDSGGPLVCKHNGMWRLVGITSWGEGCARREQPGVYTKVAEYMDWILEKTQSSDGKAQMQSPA
Chain of human plasma kallikrein (P03952 20-390 partner limits assumed): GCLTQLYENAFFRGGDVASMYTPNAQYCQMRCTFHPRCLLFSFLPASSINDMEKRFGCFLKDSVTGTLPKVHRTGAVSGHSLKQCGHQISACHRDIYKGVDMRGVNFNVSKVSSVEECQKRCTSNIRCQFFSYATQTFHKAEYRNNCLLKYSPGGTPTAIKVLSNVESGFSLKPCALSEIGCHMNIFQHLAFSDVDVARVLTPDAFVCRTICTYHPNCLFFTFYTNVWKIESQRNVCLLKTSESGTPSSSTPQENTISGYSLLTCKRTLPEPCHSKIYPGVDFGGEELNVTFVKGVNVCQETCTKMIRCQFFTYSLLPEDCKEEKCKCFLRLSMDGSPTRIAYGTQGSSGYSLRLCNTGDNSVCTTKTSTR

| Structure (SMILES) | IC50 (Factor XIa) | IC50 (human plasma kallikrein) |
| --- | --- | --- |
| O=C(Nc1ccc2c(c1)CN(O)C2=O)[C@@H]1CCC2CC(c3c(-n4cnnn4)ccc(Cl)c3F)=CC(=O)N21 (mixture of isomers) [ID No. 30, (3S)-7-(3-Chloro-2-fluoro-6-(1H-tetrazol-1-yl)phenyl)-N-(2-hydroxy-1-oxoisoindolin-5-yl)-5-oxo-1,2,3,5,8,8a-hexahydroindolizine-3-carboxamide] | > 95 nM | 128 nM |
| NC(=O)c1c(F)cc(NC(=O)[C@@H]2CCC3CC(c4c(-n5cnnn5)ccc(Cl)c4F)=CC(=O)N32)cc1F (mixture of isomers) [ID No. 33, (3S)—N-(4-Carbamoyl-3,5-difluorophenyl)-7-(3-chloro-2-fluoro-6-(1H-tetrazol-1-yl)phenyl)-5-oxo-1,2,3,5,8,8a-hexahydroindolizine-3-carboxamide] | 24 nM | 204 nM |
| CN(O)C(=O)c1ccc(NC(=O)[C@@H]2CCC3CC(c4c(-n5cnnn5)ccc(Cl)c4F)=CC(=O)N32)cc1 (mixture of isomers) [ID No. 34, (3S)-7-(3-Chloro-2-fluoro-6-(1H-tetrazol-1-yl)phenyl)-N-(4-(hydroxy(methyl)carbamoyl)phenyl)-5-oxo-1,2,3,5,8,8a-hexahydroindolizine-3-carboxamide] | 36.3 nM | 279 nM |
| O=C(Nc1ccc(-c2nc(=O)o[nH]2)cc1)[C@@H]1CCC2CC(c3c(OC(F)F)ccc(Cl)c3F)=CC(=O)N21 (mixture of isomers) [ID No. 38, (3S)-7-(3-Chloro-6-(difluoromethoxy)-2-fluorophenyl)-5-oxo-N-(4-(5-oxo-2,5-dihydro-1,2,4-oxadiazol-3-yl)phenyl)-1,2,3,5,8,8a-hexahydroindolizine-3-carboxamide] | 40.2 nM | 421 nM |
| CO[C@@H]1C[C@@H](C(=O)Nc2ccc3n[nH]cc3c2)N2C(=O)C=C(c3c(-n4cnnn4)ccc(Cl)c3F)CC12 (mixture of isomers) [ID No. 43, (1R,3S)-7-[3-Chloro-2-fluoro-6-(tetrazol-1-yl)phenyl]-N-(2H-indazol-5-yl)-1-methoxy-5-oxo-2,3,8,8a-tetrahydro-1H-indolizine-3-carboxamide] | 11 nM | 31.3 nM |
| CO[C@@H]1C[C@@H](C(=O)Nc2ccc3nn(C)cc3c2)N2C(=O)C=C(c3c(-n4cnnn4)ccc(Cl)c3F)CC12 (mixture of isomers) [ID No. 44, (1R,3S)-7-[3-Chloro-2-fluoro-6-(tetrazol-1-yl)phenyl]-1-methoxy-N-(2-methyl-2H-indazol-5-yl)-5-oxo-2,3,8,8a-tetrahydro-1H-indolizine-3-carboxamide] | 10.9 nM | 31.4 nM |
| CO[C@@H]1C[C@@H](C(=O)Nc2ccc3ncccc3c2)N2C(=O)C=C(c3c(-n4cnnn4)ccc(Cl)c3F)CC12 (mixture of isomers) [ID No. 45, (1R,3S)-7-[3-Chloro-2-fluoro-6-(tetrazol-1-yl)phenyl]-1-methoxy-5-oxo-N-(6-quinolyl)-2,3,8,8a-tetrahydro-1H-indolizine-3-carboxamide] | 7.8 nM | 14 nM |

Now those with a lower IC50 (Factor XIa), led by results:

| IC50 (Factor XIa) | IC50 (human plasma kallikrein) | Structure (SMILES) |
| --- | --- | --- |
| 4.8 nM | 23.7 nM | CN(O)C(=O)c1cc2cc(NC(=O)[C@@H]3CCC4CC(c5c(-n6cnnn6)ccc(Cl)c5F)=CC(=O)N43)ccc2[nH]1 (mixture of isomers) [ID No. 31, 5-((3S)-7-(3-Chloro-2-fluoro-6-(1H-tetrazol-1-yl)phenyl)-5-oxo-1,2,3,5,8,8a-hexahydroindolizine-3-carboxamido)-N-hydroxy-N-methyl-1H-indole-2-carboxamide] |
| 1.6 nM | 14.4 nM | O=C(O)/C=C/c1ccc(NC(=O)[C@@H]2CCC3CC(c4c(-n5cnnn5)ccc(Cl)c4F)=CC(=O)N32)cc1 (mixture of isomers) [ID No. 32, (E)-3-(4-((3S)-7-(3-Chloro-2-fluoro-6-(1H-tetrazol-1-yl)phenyl)-5-oxo-1,2,3,5,8,8a-hexahydroindolizine-3-carboxamido)phenyl)acrylic acid] |
| 5.8 nM | 282 nM | O=C(O)c1c(F)cc(NC(=O)[C@@H]2CCC3CC(c4c(-n5cnnn5)ccc(Cl)c4F)=CC(=O)N32)cc1F (mixture of isomers) [ID No. 37, 4-[[(3S)-7-[3-Chloro-2-fluoro-6-(tetrazol-1-yl)phenyl]-5-oxo-2,3,8,8a-tetrahydro-1H-indolizine-3-carbonyl]amino]-2,6-difluoro-benzoic acid] |
| 7.5 nM | 53 nM | NC(=O)c1ccc(NC(=O)[C@@H]2CCC3CC(c4c(-n5cnnn5)ccc(Cl)c4F)=CC(=O)N32)cc1F (mixture of isomers) [ID No. 39, (3S)—N-(4-Carbamoyl-3-fluorophenyl)-7-(3-chloro-2-fluoro-6-(1H-tetrazol-1-yl)phenyl)-5-oxo-1,2,3,5,8,8a-hexahydroindolizine-3-carboxamide] |
| 7.4 nM | 79.7 nM | NC(=O)c1ccc(NC(=O)[C@@H]2CCC3CC(c4c(-n5cnnn5)ccc(Cl)c4F)=CC(=O)N32)cc1 (mixture of isomers) [ID No. 41, (3S)—N-(4-Carbamoylphenyl)-7-(3-chloro-2-fluoro-6-(1H-tetrazol-1-yl)phenyl)-5-oxo-1,2,3,5,8,8a-hexahydroindolizine-3-carboxamide] |
| 0.3 nM | 10 nM | O=C(Nc1ccc(-c2nc(=O)o[nH]2)c(F)c1)[C@@H]1CCC2CC(c3c(-n4cnnn4)ccc(Cl)c3F)=CC(=O)N21 (mixture of isomers) [ID No. 42, (3S)-7-[3-Chloro-2-fluoro-6-(tetrazol-1-yl)phenyl]-N-[3-fluoro-4-(5-oxo-2H-1,2,4-oxadiazol-3-yl)phenyl]-5-oxo-2,3,8,8a-tetrahydro-1H-indolizine-3-carboxamide] |
